Assay results taken from US20040152694A1, “Methods and compositions for treating inflammatory disorders of the airways” (priority 2003, published 2004).
Like-named read-outs stand apart in the source and are kept apart here.

Columns and labels:
[1] = tested on: trachea of ovalbumin-sensitized and challenged BN-rats; assay: Tracheal contraction to acetylcholine ex vivo after antigen challenge, local (intratracheal) treatment with GYKI-53773; assay type: in vivo, rat
Procedure: (§1) Rats were actively sensitized to ovalbumin (OA) by a subcutaneous injection of 0.5 ml of OA/Al(OH3) gel mixture (2 mg OA+10 g Al(OH3)/100 ml saline) on day 1 with subsequent subcutaneous injections (10 mg OA+10 g Al(OH3)/100 ml saline) given on days 14 and 21. On day 28, animals received GYKI-52466, GYKI-47261 or GYKI-53773 compound orally (0.3 mg/kg or 3.0 mg/kg) 2 hours before antigen challenge. Antigen challenge was performed by inhalation of nebulised ovalbumin (1% antigen solution administered in a TSE inhalation system for 1 hour). Animals were sacrificed 48 hours post antigen challenge wherein the tracheas were removed to an organ bath. Dissected tracheas were allowed to equilibrate for 30 minutes before measuring tracheal spasmogenic response curves to acetylcholine (Ach).
The procedures of Example 2 were followed in order to compare the effects of antigen exposure and local (intratracheal) GYKI 53773 treatments on Ach-induced tracheal contractions in allergen sensitized and challenged rats.

[2] = tested on: airways epithelial cells of antigen sensitized BN rats; assay: Allergen-induced mucus production of airways epithelial cells, PAS staining; assay type: in vivo, rat; conditions: mean ± SEM
Procedure: Antigen sensitized BN rats were pretreated orally with 0.3, 3 and 30 mg/kg GYKI-52466 or GYKI-53773 (Talampanel) 2 hours prior to antigen challenge using a similar protocol that was described in Example 2. Lungs were isolated 48 hours subsequent to antigen exposure; samples were fixed in phosphate-buffered 8% formalin. Specimens were then routinely processed for histochemistry. In the periodic acid-Schiff stained (PAS) and haematoxylin-eosin counterstained, 5 μm thick sections, all epithelial cells of each airway segments were counted in the whole preparations at a magnification of 400×. The number of PAS(+) [mucus-producing] epithelial cells are expressed as the ratio of all epithelial cells.

[3] = tested on: isolated guinea pig trachea; assay: Endothelin-1-induced contraction of isolated guinea pig trachea in vitro; conditions: for Emax at 10 µM / Emax at 30 µM: Cavia porcellus, 25 min, read-out: Contraction %: percent of maximal response to 4.5 μM histamine
Procedure: In order to measure the effect of GYKI 52466 and 53773 (talampanel) on endothelin-1-induced contractions in isolated guinea pig trachea the following procedures were followed. The tracheae of male Dunkin-Hartley guinea pigs (350-450 g) were removed; helical strips were prepared and mounted in an organ bath. After equilibration, the strips were contracted with endothelin-1 and when contraction had reached the plateau, different concentrations of GYKI-52466, 53773 or the suitable vehicles were added into the chambers. Changes in tensions were expressed as the percentage of the maximal response to 4.5 μM histamine measured at the beginning of the experiment.

[4] = tested on: A7r5 established smooth muscle cell line (ATCC); assay: Growth factor-induced proliferation of smooth muscle cells, 3H-thymidine incorporation, A7r5; assay type: cell-based, rat
Procedure: (§2) Primary and permanently cultured rat aortic smooth muscle cells were made senescent by serum deprivation (0.1% FCS, 48 hours). Proliferation was induced by re-addition of serum (10%) containing the necessary growth factors and the effect of different concentrations of the AMPA receptor modulators on the proliferation of the cells was determined by measuring ^3H-thymidine incorporation.

[5] = tested on: trachea of ovalbumin-sensitized and challenged BN-rats; assay: Tracheal contraction to acetylcholine ex vivo after antigen challenge, oral pretreatment; assay type: in vivo, rat; conditions: for MAX: Contraction at maximal Ach concentration relative to control / ED50: −log M acetylcholine (Ach) causing 50% contraction relative to control: 3.0 mg/kg orally 2 hours before antigen challenge, mean ± SEM; for MAX: Contraction at maximal Ach concentration relative to control: control = 100; for ED50: −log M acetylcholine (Ach) causing 50% contraction relative to control: trachea 48 h post challenge; for Tracheal hyper-reactivity to acetylcholine after ovalbumin challenge: dose of 3.0 mg/kg, oral
Procedure: as §1

[6] = tested on: Rat aortic smooth muscle cells (primary); assay: Growth factor-induced proliferation of smooth muscle cells, 3H-thymidine incorporation, RASMC; assay type: cell-based
Procedure: as §2

[7] = tested on: AMPA receptors; assay: Ventilated, perfused rat lung: AMPA-induced lung injury
Procedure: The presence/function of AMPA receptors in the lung of experimental animals was investigated in the same model (ventilated perfused rat lung) that was applied for the examination of NMDA-receptors by Said et al., (Proc Natl. Acad. Sci. (USA) 93:4688 (1996). The lung of anesthetized SPRD rats were ventilated and were in situ perfused with a constant flow of Krebs solution. L-arginine, AMPA and AMPA-antagonist were added directly to the perfusate as described by Said et al, supra. As it is shown in Table 2, activation of the AMPA receptors triggered an acute edematous lung injury manifested by the significant increase in airway pressure (PAW) pulmonary artery pressure (PAP) and the ratio of wet and dry weight of the lung after the treatment.

[8] = tested on: trachea of ovalbumin-sensitized and challenged BN-rats; assay: Tracheal contraction to acetylcholine ex vivo after antigen challenge, systemic (intraperitoneal) NBQX; assay type: in vivo, rat
Procedure: as §1
The procedures of Example 2 were followed in order to compare the effects of antigen exposure and systemic (intraperitoneal) NBQX treatments on Ach-induced tracheal contractions in allergen sensitized and challenged rats.

[9] = tested on: trachea of ovalbumin-sensitized and challenged BN-rats; assay: Tracheal contraction to acetylcholine ex vivo after antigen challenge, local (intratracheal) NBQX; assay type: in vivo, rat; conditions: for ED50: −log M acetylcholine (Ach) causing 50% contraction relative to control / MAX: Contraction at maximal Ach concentration relative to control: local
[10] = second dose column (dose number not given)
[11] = third dose column (dose number not given)
[12] = 0.3 mg/kg orally 2 hours prior to antigen challenge, lungs 48 hours after
[13] = 3 mg/kg orally 2 hours prior to antigen challenge
[14] = 30 mg/kg orally 2 hours prior to antigen challenge
[15] = AMPA (200 μM) alone in perfusate, SPRD rats
[16] = third (highest) dose column (dose number not given)

In the case of `CC(=O)N1N=C(c2ccc(N)cc2)c2cc3c(cc2CC1C)OCO3` (single isomer, unassigned; (-)) [GYKI-53773, (−)-1-(4-Aminophenyl)-3-acetyl-4-methyl-3,4-dihydro-7,8-methylenedioxy-5H-2,3-benzodiazepine], the “Allergen-induced airways hyperresponsiveness” value ([1]; 1 μg/kg, single administration) is reported as “strongly reduced the allergen-induced airways hyperresponsiveness”, the “ED50: −log M acetylcholine (Ach) causing 50% contraction relative to control” value ([1]; first dose column (dose number not given), challenged 7.22, control 5.89) is reported as 5.80 ± 0.47 −log M and the “MAX: Contraction at maximal Ach concentration relative to control” value ([1]; first dose column (dose number not given), challenged 312, control 100) is reported as 202 ± 66. For the same compound, the “ED50: −log M acetylcholine (Ach) causing 50% contraction relative to control” value [1, 10] was 5.73 ± 0.39 −log M, the “MAX: Contraction at maximal Ach concentration relative to control” value [1, 10] was 113 ± 19 and the “ED50: −log M acetylcholine (Ach) causing 50% contraction relative to control” value [1, 11] was 5.68 ± 0.55 −log M. The “MAX: Contraction at maximal Ach concentration relative to control” value [1, 11] was 129 ± 30, the “% PAS(+) cells of total epithelial cells” value [2, 12] was 12.34 ± 1.39% and the “% PAS(+) cells of total epithelial cells” value [2, 13] was 9.49 ± 1.08%. For the same compound, the “% PAS(+) cells of total epithelial cells” value [2, 14] was 5.02 ± 0.75%, the “Contraction caused by ET-1 in the isolated guinea pig trachea” value [3] was “dose-dependently inhibit the contraction” and the Emax at 10 µM ([3]; 10 μM, 25 minutes after addition, vehicle 84 ± 8, Mean ± SD (n)) was 43 ± 9%. The Emax at 30 µM ([3]; 30 μM, 25 minutes after addition, vehicle 66 ± 8, Mean ± SD (n)) was 7 ± 4%, the “Inhibition (% of control) A7r5” value ([4]; 0.03 μg/ml) was 21 % of control and the “Inhibition (% of control) A7r5” value ([4]; 0.3 μg/ml) was 43 % of control. The “Inhibition (% of control) A7r5” value ([4]; 3.0 μg/ml) was 87 % of control, the “MAX: Contraction at maximal Ach concentration relative to control” value [5] was 85 ± 16 and the “ED50: −log M acetylcholine (Ach) causing 50% contraction relative to control” value [5] was 4.64 ± 0.34 −log M. For the same compound, the “Tracheal hyper-reactivity to acetylcholine after ovalbumin challenge” value (from here on “Tracheal hyper-reactivity”) [5] was “brought this elevation back to control level”, the “Inhibition (% of control) RASMC” value ([6]; 0.03 μg/ml) was 26 % of control and the “Inhibition (% of control) RASMC” value ([6]; 0.3 μg/ml) was 59 % of control. For the same compound, the “Inhibition (% of control) RASMC” value ([6]; 3.0 μg/ml) was 70 % of control.

In the case of `CNC(=O)N1N=C(c2ccc(N)cc2)c2cc3c(cc2CC1C)OCO3` (single isomer, unassigned; (-)) [GYKI-53784, (−)-1-(4-Aminophenyl)-3-methylcarbamoyl-4-methyl-7,8-methylenedioxy-3,4-dihydro-5H-2,3-benzodiazepine], the “W/D: Ratio of wet and dry weight of lungs after 60-minute perfusion” value ([7]; AMPA (200 μM) + 53784 (200 μM), AMPA alone 14.8, control 6.6) is reported as 14.3 ± 5.6 (4), the “PAP: Pulmonary artery pressure after 60 minutes perfusion as a percent of 0 minute pressure” value ([7]; AMPA (200 μM) + 53784 (200 μM), AMPA alone 147.9, control 96.0) is reported as 114.0 ± 23.0 (4) percent and the “PAW: Airway pressure after 60 minute perfusion as a percent of 0 minute pressure” value ([7]; AMPA (200 μM) + 53784 (200 μM), AMPA alone 183.4, control 99.3) is reported as 110.3 ± 19.1 (4) percent. The “Effect on airway and pulmonary arterial pressures” value ([7]; AMPA-treated perfused rat lung) was “decreased both the airway and the pulmonary arterial pressures”.

In the case of `Cc1onc(O)c1CC(N)C(=O)O` (stereo not drawn) [AMPA, α-Amino-3-hydroxy-5-methyl-4-isoxazole propionate], the “PAP: Pulmonary artery pressure after 60 minutes perfusion as a percent of 0 minute pressure” value [7, 15] is reported as 147.9 ± 8.6 (7) percent, the “W/D: Ratio of wet and dry weight of lungs after 60-minute perfusion” value [7, 15] is reported as 14.8 ± 3.9 (3) and the “PAW: Airway pressure after 60 minute perfusion as a percent of 0 minute pressure” value ([7]; AMPA (200 μM) alone in perfusate, SPRD rats, n in brackets) is reported as 183.4 ± 15.6 (7) percent.

`Cc1cn2c(n1)Cc1ccc(Cl)cc1C(c1ccc(N)cc1)=N2` [GYKI-47261] was tested, and the “MAX: Contraction at maximal Ach concentration relative to control” value [5] was 98 ± 13, the “ED50: −log M acetylcholine (Ach) causing 50% contraction relative to control” value [5] was 5.26 ± 0.30 −log M and the “Tracheal hyper-reactivity” value [5] was “brought this elevation back to control level”.

For `CC1=NN=C(c2ccc(N)cc2)c2cc3c(cc2C1)OCO3` [GYKI-52466, 1-(4-Aminophenyl)-4-methyl-7,8-methylenedioxy-5H-2,3-benzodiazepine], the “% PAS(+) cells of total epithelial cells” value [2, 12] was 16.09 ± 1.82%, the “% PAS(+) cells of total epithelial cells” value [2, 13] was 15.18 ± 1.68% and the “% PAS(+) cells of total epithelial cells” value [2, 14] was 14.17 ± 1.59%. For the same compound, the “Contraction caused by ET-1 in the isolated guinea pig trachea” value [3] was “dose-dependently inhibit the contraction”, the Emax at 10 µM [3] was 53 ± 7% and the Emax at 30 µM [3] was 23 ± 9%. For the same compound, the “MAX: Contraction at maximal Ach concentration relative to control” value [5] was 135 ± 32, the “ED50: −log M acetylcholine (Ach) causing 50% contraction relative to control” value [5] was 5.60 ± 0.46 −log M and the “Tracheal hyper-reactivity” value [5] was “brought this elevation back to control level”.

In the case of `NS(=O)(=O)c1cccc2c1c([N+](=O)[O-])cc1[nH]c(=O)c(=O)[nH]c12` [NBQX, 2,3-Dihydroxy-6-nitro-7-sulphamoyi-benzo(f)quinoxaline], the “ED50: −log M acetylcholine (Ach) causing 50% contraction relative to control” value ([8]; 0.15 mg/kg intraperitoneal, challenged 7.31, control 6.16) is reported as 6.29 ± 0.51 −log M, the “MAX: Contraction at maximal Ach concentration relative to control” value ([8]; 0.15 mg/kg intraperitoneal, challenged 308, control 100) is reported as 178 ± 65 and the “ED50: −log M acetylcholine (Ach) causing 50% contraction relative to control” value ([8]; 1.5 mg/kg intraperitoneal) is reported as 4.98 ± 0.80 −log M. For the same compound, the “MAX: Contraction at maximal Ach concentration relative to control” value ([8]; 1.5 mg/kg intraperitoneal) was 115 ± 30, the “ED50: −log M acetylcholine (Ach) causing 50% contraction relative to control” value ([8]; 15 mg/kg intraperitoneal) was 5.11 ± 0.55 −log M and the “MAX: Contraction at maximal Ach concentration relative to control” value ([8]; 15 mg/kg intraperitoneal) was 125 ± 32. For the same compound, the “Allergen-induced airways hypersensitivity, ED50 and maximal provoked response” value ([8]; intraperitoneal, dose-dependent) was “strongly inhibits both parameters”, the “Inhibition (% of control) RASMC” value ([6]; 0.03 μg/ml) was 1 % of control and the “Inhibition (% of control) RASMC” value ([6]; 0.3 μg/ml) was 5 % of control. For the same compound, the “Inhibition (% of control) RASMC” value ([6]; 3.0 μg/ml) was 94 % of control, the “Allergen-induced airways hypersensitivity” value ([9]; local administration, statistically significant only at the highest applied dose) was “inhibits allergen-induced airways hypersensitivity in a dose-dependent manner” and the “ED50: −log M acetylcholine (Ach) causing 50% contraction relative to control” value ([9]; first dose column (dose number not given), challenged 6.70, control 5.68) was 5.85 ± 0.59 −log M. For the same compound, the “MAX: Contraction at maximal Ach concentration relative to control” value ([9]; first dose column (dose number not given), challenged 327, control 100) was 308 ± 128, the “ED50: −log M acetylcholine (Ach) causing 50% contraction relative to control” value [9, 10] was 5.20 ± 0.72 −log M and the “MAX: Contraction at maximal Ach concentration relative to control” value [9, 10] was 108 ± 28. For the same compound, the “ED50: −log M acetylcholine (Ach) causing 50% contraction relative to control” value [9, 16] was 3.44 ± 0.36 −log M and the “MAX: Contraction at maximal Ach concentration relative to control” value [9, 16] was 60 ± 14.
